According to patent US4196217A, “Hydroxylated amines with bacteriostatic activity” (priority 1978, dated 1980):
Values after ≈ are worked out from the molar mass of the structure shown. Values joined by “and” are separate entries in the source; they are usually repeats but may differ in a detail not shown here. Equal values may be shown once. Where a name gives a salt, the structure may show the parent alone. Read-outs that look alike come from different tables or passages of the source.

Assays:
Escherichia coli = test: bacteriostatic activity (MIC), Escherichia coli; type: cell-based
Protocol: (§1) The medium containing the solution to be tested is inoculated in the form of three single striae with a 10^-5 times dilution of a bacterial culture aged 16 to 18 hours grown in salted peptone broth at a temperature of 37° C.
(§2) After inoculation, the media are stored at 37° C. for 48 hours, after which the bacterial growth is inspected. The MIC (minimum inhibiting concentrations) are expressed in micrograms of pure product per cubic centimeter of gelose medium required for inhibiting the culture (μg/cc). The control substance used is benzalconium chloride.
(§3) Tests were also carried out to determine the bacteriostatic activity of other compounds according to the invention by the method described above and in comparison with known substances, in particular with benzalconium chloride (compound T in the Tables).

Pseudomonas aeruginosa = test: bacteriostatic activity (MIC), Pseudomonas aeruginosa; type: cell-based
Protocol: as §1, §2, §3

Bacillus subtilis = test: bacteriostatic activity (MIC), Bacillus subtilis; type: cell-based
Protocol: as §1, §2, §3

Staphyloccus aureus = test: bacteriostatic activity (MIC), Staphylococcus aureus; type: cell-based
Protocol: as §1, §2, §3

Enterbacter cloacae = test: bacteriostatic activity (MIC), Enterbacter cloacae; type: cell-based; conditions: Table I, 37° C., 48 hours
Protocol: as §2, with “The medium containing the solution to be tested is inoculated in the form of three single striae with a 10^-5 times dilution of a bacterial culture aged 16 to 18 hours grown in salted peptone broth at a temperature of 37° C. After” for “After”

Pneumobacille = test: bacteriostatic activity (MIC), Pneumobacille; type: cell-based; conditions: Table I, 37° C., 48 hours
Protocol: as §2, with “The medium containing the solution to be tested is inoculated in the form of three single striae with a 10^-5 times dilution of a bacterial culture aged 16 to 18 hours grown in salted peptone broth at a temperature of 37° C. After” for “After”

Proteus vulgaris = test: bacteriostatic activity (MIC), Proteus vulgaris; type: cell-based; conditions: Table I, 37° C., 48 hours
Protocol: as §2, with “The medium containing the solution to be tested is inoculated in the form of three single striae with a 10^-5 times dilution of a bacterial culture aged 16 to 18 hours grown in salted peptone broth at a temperature of 37° C. After” for “After”

Moraxella glucidolytica = test: bacteriostatic activity (MIC), Moraxella glucidolytica; type: cell-based; conditions: Table I, 37° C., 48 hours
Protocol: as §2, with “The medium containing the solution to be tested is inoculated in the form of three single striae with a 10^-5 times dilution of a bacterial culture aged 16 to 18 hours grown in salted peptone broth at a temperature of 37° C. After” for “After”

Serratia = test: bacteriostatic activity (MIC), Serratia; type: cell-based; conditions: Table I, 37° C., 48 hours
Protocol: as §2, with “The medium containing the solution to be tested is inoculated in the form of three single striae with a 10^-5 times dilution of a bacterial culture aged 16 to 18 hours grown in salted peptone broth at a temperature of 37° C. After” for “After”

[1] = Escherichia coli, 48 h, Table VI, bacteriostase containing 20% of serum, read-out: M.I.C.
[2] = Escherichia coli, 48 h, Table VI, bacteriostase without serum, read-out: M.I.C.
[3] = Pseudomonas aeruginosa, 48 h, Table VI, bacteriostase containing 20% of serum, read-out: M.I.C.
[4] = Pseudomonas aeruginosa, 48 h, Table VI, bacteriostase without serum, read-out: M.I.C.
[5] = Bacillus subtilis, 48 h, Table VI, bacteriostase containing 20% of serum, read-out: M.I.C.
[6] = Bacillus subtilis, 48 h, Table VI, bacteriostase without serum, read-out: M.I.C.
[7] = Staphylococcus aureus, 48 h, Table VI, bacteriostase containing 20% of serum, read-out: M.I.C.
[8] = Staphylococcus aureus, 48 h, Table VI, bacteriostase without serum, read-out: M.I.C.
[9] = Table I, with 20% of serum, 37° C., 48 hours
[10] = Table I, without serum, 37° C., 48 hours
[11] = Table VI, bacteriostase containing 20% of serum
[12] = Table VI, bacteriostase without serum

## CCCCCCCCCCOCC(O)C[N+](C)(C)C (stereo not shown) [Compound 5, 3-decyloxy-2-hydroxy-N,N,N-trimethyl-1-ammonium chloride]
Escherichia coli; [1]
  MIC: 200 µg/mL
Escherichia coli; [2]
  MIC: 125 µg/mL
Pseudomonas aeruginosa; [3]
  MIC: 750 µg/mL
Pseudomonas aeruginosa; [4]
  MIC: 600 µg/mL
solubility
  solubility in water: soluble in water
Bacillus subtilis; [5]
  MIC: 40 µg/mL
Bacillus subtilis; [6]
  MIC: 25 µg/mL
Staphyloccus aureus; [7]
  MIC: 50 µg/mL
Staphyloccus aureus; [8]
  MIC: 25 µg/mL

## CCCCCCCCCCCCCCCCCCOCC(O)CN.Cl (stereo not shown) [Compound 10, 3-octadecyloxy-2-hydroxy-1-aminopropane hydrochloride]
Escherichia coli; [1]
  MIC: > 1000 µg/mL
Escherichia coli; [2]
  MIC: > 500 µg/mL
Pseudomonas aeruginosa; [3]
  MIC: > 2500 µg/mL
Pseudomonas aeruginosa; [4]
  MIC: 1300 µg/mL
Bacillus subtilis; [5]
  MIC: > 500 µg/mL
Bacillus subtilis; [6]
  MIC: > 300 µg/mL
Staphyloccus aureus; [7]
  MIC: > 500 µg/mL
Staphyloccus aureus; [8]
  MIC: > 300 µg/mL

## CCCCCCCCCCCCCCOCC(O)CN (stereo not shown) [Compound 9, 3-tetradecyloxy-2-hydroxyamino-1-propane hydrochloride]
Escherichia coli; [1]
  MIC: > 1000 µg/mL
Escherichia coli; [2]
  MIC: > 500 µg/mL
Pseudomonas aeruginosa; [3]
  MIC: 2500 µg/mL
Pseudomonas aeruginosa; [4]
  MIC: 1250 µg/mL
solubility
  solubility in water: soluble in water
Bacillus subtilis; [5]
  MIC: 30 µg/mL
Bacillus subtilis; [6]
  MIC: 7 µg/mL
Staphyloccus aureus; [7]
  MIC: 50 µg/mL
Staphyloccus aureus; [8]
  MIC: 10 µg/mL

## CCCCCCCCCCOCC(O)CN (stereo not shown) [Compound 13, 3-decyloxy-2-hydroxy-1-aminopropane]
Escherichia coli; [1]
  MIC: 250 µg/mL (≈ 1080 µM)
Escherichia coli; [2]
  MIC: 50 µg/mL (≈ 216 µM)
Pseudomonas aeruginosa; [3]
  MIC: 400 µg/mL (≈ 1730 µM)
Pseudomonas aeruginosa; [4]
  MIC: 150 µg/mL (≈ 648 µM)
Bacillus subtilis; [5]
  MIC: 40 µg/mL (≈ 173 µM)
Bacillus subtilis; [6]
  MIC: 20 µg/mL (≈ 86.4 µM)
Staphyloccus aureus; [7]
  MIC: 80 µg/mL (≈ 346 µM)
Staphyloccus aureus; [8]
  MIC: 40 µg/mL (≈ 173 µM)

## COCC(O)CN (stereo not shown) [Compound 11]
Escherichia coli; [1]
  MIC: > 1000 µg/mL
Escherichia coli; [2]
  MIC: > 500 µg/mL
Pseudomonas aeruginosa; [3]
  MIC: > 2500 µg/mL
Pseudomonas aeruginosa; [4]
  MIC: > 1300 µg/mL
Bacillus subtilis; [5]
  MIC: > 500 µg/mL
Bacillus subtilis; [6]
  MIC: > 300 µg/mL
Staphyloccus aureus; [7]
  MIC: > 500 µg/mL
Staphyloccus aureus; [8]
  MIC: > 300 µg/mL

## CCOCC(O)CN.Cl (stereo not shown) [Compound 12, 3-ethoxy-2-hydroxy-1-aminopropane hydrochloride]
Escherichia coli; [1]
  MIC: > 1000 µg/mL
Escherichia coli; [2]
  MIC: > 500 µg/mL
Pseudomonas aeruginosa; [3]
  MIC: > 2500 µg/mL
Pseudomonas aeruginosa; [4]
  MIC: > 1300 µg/mL
Bacillus subtilis; [5]
  MIC: > 500 µg/mL
Bacillus subtilis; [6]
  MIC: > 300 µg/mL
Staphyloccus aureus; [7]
  MIC: > 500 µg/mL
Staphyloccus aureus; [8]
  MIC: > 300 µg/mL

## CCCCCCCCCCSCC(O)CN (stereo not shown) [Compound 14, 3-decanethio-2-hydroxy-1-aminopropane hydrochloride]
Escherichia coli; [1]
  MIC: 250 µg/mL
Escherichia coli; [2]
  MIC: 50 µg/mL
Pseudomonas aeruginosa; [3]
  MIC: 600 µg/mL
Pseudomonas aeruginosa; [4]
  MIC: 200 µg/mL
solubility; alcohol
  solubility in alcohol: soluble in alcohol
Bacillus subtilis; [5]
  MIC: 30 µg/mL
Bacillus subtilis; [6]
  MIC: 5 µg/mL
Staphyloccus aureus; [7]
  MIC: 70 µg/mL
Staphyloccus aureus; [8]
  MIC: 10 µg/mL

## CCCCCCCCCC(O)CN (stereo not shown) [Compound 7]
Escherichia coli; [1]
  MIC: 150 µg/mL (≈ 801 µM)
Escherichia coli; [2]
  MIC: 75 µg/mL (≈ 400 µM)
Pseudomonas aeruginosa; [3]
  MIC: 500 µg/mL (≈ 2670 µM)
Pseudomonas aeruginosa; [4]
  MIC: 200 µg/mL (≈ 1070 µM)
Bacillus subtilis; [5]
  MIC: 50 µg/mL (≈ 267 µM)
Bacillus subtilis; [6]
  MIC: 30 µg/mL (≈ 160 µM)
Staphyloccus aureus; [7]
  MIC: 150 µg/mL (≈ 801 µM)
Staphyloccus aureus; [8]
  MIC: 75 µg/mL (≈ 400 µM)

## benzalconium chloride [T, reference compound]
Escherichia coli; [9]
  MIC: 300 μg/cc
Escherichia coli; [10]
  MIC: 125 μg/cc
Escherichia coli; [11]
  M.I.C.: 200 μg/cc and 250 μg/cc and 300 μg/cc
Escherichia coli; [12]
  M.I.C.: 125 μg/cc and 150 μg/cc
Pseudomonas aeruginosa; [9]
  MIC: 850 μg/cc
Pseudomonas aeruginosa; [10]
  MIC: 600 μg/cc
Pseudomonas aeruginosa; [11]
  M.I.C.: 750 μg/cc and 850 μg/cc and 1200 μg/cc and 1000 μg/cc
Pseudomonas aeruginosa; [12]
  M.I.C.: 500 μg/cc and 600 μg/cc and 700 μg/cc
Enterbacter cloacae; with 20% of serum
  MIC: 75 μg/cc
Enterbacter cloacae; without serum
  MIC: 20 μg/cc
Pneumobacille; with 20% of serum
  MIC: 75 μg/cc
Pneumobacille; without serum
  MIC: 35 μg/cc
Proteus vulgaris; with 20% of serum
  MIC: 75 μg/cc
Proteus vulgaris; without serum
  MIC: 35 μg/cc
Moraxella glucidolytica; with 20% of serum
  MIC: 150 μg/cc
Moraxella glucidolytica; without serum
  MIC: 75 μg/cc
Bacillus subtilis; [9]
  MIC: 7.5 μg/cc
Bacillus subtilis; [10]
  MIC: 2.5 μg/cc
Bacillus subtilis; [11]
  M.I.C.: 2.5 μg/cc and 4 μg/cc
Bacillus subtilis; [12]
  M.I.C.: 1 μg/cc and 2 μg/cc and 1.5 μg/cc
Serratia; with 20% of serum
  MIC: 30 μg/cc
Serratia; without serum
  MIC: 10 μg/cc
Staphyloccus aureus; [9]
  MIC: 12 μg/cc
Staphyloccus aureus; [10]
  MIC: 1.5 μg/cc
Staphyloccus aureus; [11]
  M.I.C.: 10 μg/cc and 5 μg/cc
Staphyloccus aureus; [12]
  M.I.C.: 1.5 μg/cc and 1 μg/cc

## CCCCCCCCC(O)CN (stereo not shown) [Compound 4]
Escherichia coli; [1]
  MIC: 200 µg/mL (≈ 1150 µM)
Escherichia coli; [2]
  MIC: 125 µg/mL (≈ 721 µM)
Pseudomonas aeruginosa; [3]
  MIC: 500 µg/mL (≈ 2890 µM)
Pseudomonas aeruginosa; [4]
  MIC: 400 µg/mL (≈ 2310 µM)
Bacillus subtilis; [5]
  MIC: 75 µg/mL (≈ 433 µM)
Bacillus subtilis; [6]
  MIC: 20 µg/mL (≈ 115 µM)
Staphyloccus aureus; [7]
  MIC: 150 µg/mL (≈ 866 µM)
Staphyloccus aureus; [8]
  MIC: 70 µg/mL (≈ 404 µM)

## CCCCCCCCCCCCOCC(O)CN.Cl (stereo not shown) [Compound 2, 3-dodecyloxy-2-hydroxy-1-aminopropane hydrochloride]
Escherichia coli; [1]
  MIC: 100 µg/mL
Escherichia coli; [2]
  MIC: 20 µg/mL
Pseudomonas aeruginosa; [3]
  MIC: 1200 µg/mL
Pseudomonas aeruginosa; [4]
  MIC: 800 µg/mL
Bacillus subtilis; [5]
  MIC: 30 µg/mL
Bacillus subtilis; [6]
  MIC: 5 µg/mL
Staphyloccus aureus; [7]
  MIC: 75 µg/mL
Staphyloccus aureus; [8]
  MIC: 10 µg/mL

## CCCCCCCCCCCC(O)CN (stereo not shown) [Compound 8, 2-hydroxy-1-amino tridecane]
Escherichia coli; [1]
  MIC: 75 µg/mL (≈ 348 µM)
Escherichia coli; [2]
  MIC: 10 µg/mL (≈ 46.4 µM)
Pseudomonas aeruginosa; [3]
  MIC: > 1500 µg/mL
Pseudomonas aeruginosa; [4]
  MIC: > 1000 µg/mL
Bacillus subtilis; [5]
  MIC: 30 µg/mL (≈ 139 µM)
Bacillus subtilis; [6]
  MIC: 3 µg/mL (≈ 13.9 µM)
Staphyloccus aureus; [7]
  MIC: 40 µg/mL (≈ 186 µM)
Staphyloccus aureus; [8]
  MIC: 20 µg/mL (≈ 92.9 µM)

## CCCCCCCCOCC(O)CN.Cl (stereo not shown) [Compound 6, 3-octyloxy-2-hydroxy-1-aminopropane hydrochloride]
Escherichia coli; [1]
  MIC: 300 µg/mL
Escherichia coli; [2]
  MIC: 150 µg/mL
Pseudomonas aeruginosa; [3]
  MIC: 500 µg/mL
Pseudomonas aeruginosa; [4]
  MIC: 300 µg/mL
Bacillus subtilis; [5]
  MIC: 200 µg/mL
Bacillus subtilis; [6]
  MIC: 150 µg/mL
Staphyloccus aureus; [7]
  MIC: > 250 µg/mL
Staphyloccus aureus; [8]
  MIC: > 150 µg/mL

## Br.CCCCCCCCCCOCC(O)CN (stereo not shown) [Compound 3, 3-decyloxy-2-hydroxy-1-aminopropane hydrobromide]
Escherichia coli; [1]
  MIC: 60 µg/mL
Escherichia coli; [2]
  MIC: 30 µg/mL
Pseudomonas aeruginosa; [3]
  MIC: 250 µg/mL
Pseudomonas aeruginosa; [4]
  MIC: 100 µg/mL
Bacillus subtilis; [5]
  MIC: 50 µg/mL
Bacillus subtilis; [6]
  MIC: 25 µg/mL
Staphyloccus aureus; [7]
  MIC: 75 µg/mL
Staphyloccus aureus; [8]
  MIC: 30 µg/mL
